Data on ten compounds can be found in US20240108753A1, “NUCLEIC ACID DELIVERY” (NUNTIUS THERAPEUTICS LIMITED, priority 2021, published 2024).

Data set [1] has as its system mice tissue. As to the kind of experiment: In vivo luciferase DNA expression assays. Particulars: intravenous; DOTMA/DOPE w/w=1:1 to DNA; NP 20:1; 24 h. The protocol: Mice were injected with the dendrimers, lipid and DNA formulations, and tissues were isolated and snap-frozen for luciferase expression analysis 24 h and 48 h post intravenous and intramuscular injection respectively.
The tissues were homogenised with 1× reporter lysis buffer supplemented with Protease Inhibitors. Depending on the tissues, 1.5 to 3 times of the lysis buffer was used for the tissue homogenisation. Following the homogenisation, the lysates were centrifuged and the supernatants were used for assaying luciferase expression and protein content. The luciferase expression level was measured with a luminometer using a luciferase assay kit (Promega), following the manufacturer's instructions. The protein content was measured using a Biorad protein assay kit at 595 nm absorbance, following the manufacturer's instructions.
Mice were injected with the dendrimers, lipid and DNA formulation prepared for detection of luciferase expression post injection. Tissues were isolated and snap-frozen for luciferase expression analysis 24 h and 48 h post intravenous and intramuscular injection respectively.

Data set [2] in a line: Hydrodynamic size, polydispersity index and zeta potential of dendrimer, lipid and mRNA complexes. The data set is classed as physicochemical. Particulars: DOTMA/DOPE w/w 10:1 to mRNA; for Hydrodynamic size: dendrimer, lipid and mRNA complexes. Here is the method:
The hydrodynamic size, polydispersity index and Zeta potential was determined for a set of the dendrimers disclosed in Tables 1 and 2.

Data set [3] relates to clathrin mediated endocytosis, caveolae-mediated endocytosis and micropinocytosis. As to the kind of experiment: Endocytic experiments: transfection in the presence of uptake inhibitors. The data set is classed as cell-based. The conditions noted are these: inhibitor added to G1,2,3-RL-D/D-DNA nanoparticle transfection. Here is the method: The uptake mechanism of the composition of the invention was investigated. Chlorpromazine was used to inhibit clathrin mediated endocytosis. Genistein and Rottlerin were also used; these agents have been reported to inhibit caveolae-mediated endocytosis and micropinocytosis respectively.
Cells were preincubated with each inhibitor (chlorpromazine, genstein and rottlerin) for 30 min at 37 C.
Subsequently transfection was performed for a further 4 h at 37 C as described in the transfection section, in the presence of the inhibitor.

The subject of data set [4] is HeLa cells. As to the kind of experiment: Cell viability after transfection (crystal violet). The class given is cell-based, human. The conditions noted are these: following transfection with DNA formulations. The protocol:
Cell viability. Cells were transfected as described in ‘Transfection Procedure’. Following 24 hours of transfection, the medium was removed and the cells were washed twice with PBS. Afterwards, the cells were dried for 1 hour at room temperature (to allow permeation of the nuclear stain). Crystal violet solution (50 μL of stock solution supplied by Sigma-Aldrich) was added to the cells. They were incubated for 15 min at room temperature. After washing with distilled water (5 times), the cells were dried for 30 min at room temperature. Then, MeOH (200 μL) was added and the suspension was incubated for 1 hour at room temperature. The relative amount of the crystal violet stain retained by viable cells was determined by the absorbance of the methanolic solution at 550 nm.

For data set [5] the following is noted: cited from earlier work.
The test system of data set [6] is immune cells. The experiment in a line: Immune cell targeting: uptake of labelled mRNA after intravenous injection (flow cytometry). The data set is classed as in vivo, mice. The protocol: Fifteen 5-7-week-old female CD-1 mice (Charles River UK) were dosed with 1 mg/kg of either mRNA labelled with Alexa Fluor488 only or mRNA labelled with Alexa Fluor488 with NTX1 and DOTMA/DOPE or mRNA labelled with Alexa Fluor488 with G1,2-RL, 3-LR and DOTMA/DOPE or mRNA labelled with Alexa Fluor488 with G1,2-RL, 3-LR and DOTMA/DOPE, respectively, via intravenous injection using a dose volume of 5 ml/kg. Group 1 received vehicle and Group 5 received mRNA alone as controls. Mice in al groups were culled 2 hours post IV administration. At the time of euthanasia, whole blood, spleen, inguinal lymph nodes and femurs were collected from all mice. White Blood Cells (WBC) were obtained from EDTA treated whole blood, spleen, inguinal lymph nodes and bone marrow for flow cytometry analysis. In short, bone marrow (BM) was flushed from femurs, and spleens and lymph nodes were processed to single cell suspensions by passing them through a 70 μm filter. Red blood cells in blood, BM and spleen were lysed before isolated WBCs from all tissues were stained with different antibody panels to identify specific sub-populations of immune cells. The staining was performed in a 96-well plate format before samples were analysed using an ACEA Novocyte 3005 flow cytometer.

The test system of data set [7] is mice tissue. The experiment in a line: In vivo luciferase mRNA expression assays. Particulars: intravenous, NP 0.15:1, DOTMA/DOPE w/w=10:1 to mRNA, 6 hours. Here is the method: Peptide dendrimers were diluted to a respective concentration and mixed with mRNA for a desired NP ratio such as NP=0.15:1 or 8:1. The solution was incubated in room temperature for 10 mins. Lipid such as DOTMA/DOPE was diluted to a respective concentration and mixed with the dendrimer-mRNA complexes for a desired NP ratio such as NP-4.7:1. The solution was incubated in room temperature for 20 mins. When required, the solution would be further diluted before injection.
All animal procedures conducted in our studies complied with UK laws and were inclusive of ethics approval. Female CD-1 mice (n=39) aged 6-8 weeks left to habituate for 1-week upon their arrival. All mice were weighed, and the formulations were delivered intravenously (100 μl) via the tail vein using 30G insulin syringes (BD biosciences).
All mice were imaged 6 hours post injection. BLI was performed using an IVIS Lumina II (Perkin Elmer) Imaging system. Mice were administered D-luciferin (30 mg/mL, XenoLight, Perkin Elmer) at a dose of 150 mg/kg. Mice were anaesthetised 6 mins after receiving D-luciferin in a chamber with 5% isoflurane and then placed on a heated imaging platform while being maintained on 2.5% isoflurane. Mice were imaged 10 min post administration of D-luciferin with an exposure time set to ensure the signal acquired was within an effective detection range (open filter, binning 8, f-stop 1). Bioluminescence signal was quantified by measuring photon flux (photons/s) in the defined region of interest (ROI) using the Living Image software (Perkin Elmer). Following in vivo whole-body imaging, the mice were euthanised, cardiac blood taken, and the tissues extracted for ex vivo imaging. Here each tissue was placed into individual wells of a 24-well imaging plate (black sided, Eppendorf) containing 0.3 mg/mL D-luciferin in PBS). The imaging plate was placed in the centre of imaging platform (Lumina II system) and signal was measured using the acquisition settings detailed above. Finally, the tissues were placed in storage vials and flash frozen in liquid nitrogen.
Mice were injected with a composition comprising DOTMA/DOPE, mRNA encoding luciferase and either G1,2,3-RL, (FIG. 10, top panel; the “G1,2,3-RL, lipid and mRNA formulation”) or G1,2-RL,3-LR (FIG. 10, bottom panel: the “G1,2,3-RL, lipid and mRNA formulation”). Each formulation was prepared and injected at an NP ratio of 8:1 and 0.15:1. Mice were prepared for detection of luciferase expression post injection.

In data set [8] the test system is HeLa cells. As to the kind of experiment: mRNA (eGFP) transfection with peptide dendrimers and DOTMA/DOPE in full growth medium. The class given is cell-based, human. Particulars: HeLa; full growth medium; DOTMA/DOPE w/w 10:1 to mRNA; relative to G1,2-RL, 3-LR. Here is the method: FIG. 28. mRNA transfection of the peptide dendrimers with lipid system in vitro. […] The mRNA used expressed an eGFP reporter gene. Following a 24 hour transfection, the cells were harvested to assay the eGFP expression. The eGFP expression was normalised with the total amount of protein of each transfection. The gene expression level was calculated by normalising the transfection value of the G1,2-RL, 3-LR, DOTMA/DOPE & mRNA treated cells. 1st, 2nd and 3rd generation dendrimers with varying cores and 1st, 2nd, and 3rd generation peptide motifs can transfect cells with mRNA effectively under the tested conditions.
FIG. 29. mRNA transfection of the peptide dendrimers with lipid system in vitro. HeLa cells were transfected with mRNA alone or mRNA with peptide dendrimers and DOTMA/DOPE (w/w=10:1 to mRNA). The N:P ratio of G1,2-RL,3-LR was at 0.16:1 while the N:P ratios of all other dendrimers at 8:1. The mRNA used expressed an eGFP reporter gene. Following a 24 hour transfection, the cells were harvested to assay the eGFP expression. The eGFP expression was normalised with the total amount of protein of each transfection. The gene expression level was calculated by normalising the transfection value of the G1,2-RL, 3-LR, DOTMA/DOPE & mRNA treated cells. 1st, 2nd and 3rd generation dendrimers with varying cores and 1st, 2nd, and 3rd generation peptide motifs can transfect cells with mRNA effectively under the tested conditions.
The effect on the number of generations of dendrimers on mRNA delivery was studied by transfecting HeLa cells in full growth medium conditions.

Data set [9] relates to C2C12 cells. The experiment in a line: In vitro DNA (luciferase reporter) delivery. The conditions noted are these: N:P=8:1, DOTMA/DOPE w/w=1:1 to DNA. The class given is cell-based. The source says:
FIG. 25. In vitro DNA delivery to HeLa and C2C12 cells. HeLa cells were transfected with either DNA alone, G1,2,3-RL (N:P=5:1) and DOTMA/DOPE (at a w/w=1:1 to DNA) with DNA and G1,2,3-RL (N:P=5:1) and DOPG/DOPE (at a w/w=1:1 to DNA) with DNA (top panel). C2C12 cells (a muscle-derived cell line) were transfected with either DNA alone, polyethylenimine with DNA, G1,2-RL, 3-LR (N:P=8:1) and DOTMA/DOPE (at a w/w=1:1 to DNA) with DNA and NTX2 (N:P=8:1) and DOTMA/DOPE (at a w/w=1:1 to DNA) with DNA (bottom panel). The DNA used in both experiments encodes a luciferase reporter gene. NTX2 is a G1,2-RL, 3-LR dendrimer conjugated to a muscle targeting peptide ASSLINA ((LR)8(KRL)4(KRL)2KGSCGAASSLNIA(Acp)-NH2).
NTX2 is a G1,2-RL, 3-LR dendrimer conjugated to a muscle targeting peptide ASSLINA ((LR)8(KRL)4(KRL)2KGSCGAASSLNIA(Acp)-NH2).
On the technique in general: Reporter assays use an easily measured gene product as a stand-in for the process of interest.

Where a SMILES comes first, the peptide text is derived from it. Where no end group is shown, it is not given here.

Turning to (LR)8(KLR)4(KLR)2KGSC-NH2 [G1,2,3-LR], in data set [1], the “luciferase expression in tissues, DNA delivery” value is “the most effective delivery to skeletal muscle”. In [2] (N:P 0.16:1), the “Polydispersity Index (PDI)” value is listed as 0.168, the “Zeta Potential” value stood at 43 mV and the Hydrodynamic size is reported as 121 nm. Further, in data set [2] (N:P 8:1), the “Polydispersity Index (PDI)” value was found to be 0.272, the “Zeta Potential” value is given as 60 mV and the Hydrodynamic size was 83 nm.
Consider `O=c1c(-c2ccc(O)cc2)coc2cc(O)cc(O)c12` [Genistein], for which the inhibition of transfection result in data set [3] is listed as “around 50%”.
Consider `CC(C)C[C@H](NC(=O)[C@@H](N)CCCNC(=N)N)C(=O)NCCCC[C@H](NC(=O)[C@H](CC(C)C)NC(=O)[C@@H](N)CCCNC(=N)N)C(=O)NCC(=O)N[C@@H](CO)C(=O)N[C@@H](CS)C(N)=O` [G1-RL, (RL)2KGSC-NH2] (HELM PEPTIDE1{R.L.K.G.S.C.[am]}|PEPTIDE2{R.L}$PEPTIDE1,PEPTIDE2,3:R3-2:R2$$$V2.0), for which the cell death in [4] is 40%.
Take `CN(C)CCCN1c2ccccc2Sc2ccc(Cl)cc21` [Chlorpromazine]: in data set [3], the inhibition of transfection was 80%.
As for `ClC(Cl)(Cl)Cl` [carbon tetrachloride], the “AST and ALT threshold levels in disease model of liver damage” value in [5] (Bonnet et al 2008) is on record as “greater than 7000 U/L”.
Take “(LR)8(KRL)4(KRL)2KGSCGAASSLNIAXRXRRBRRXRRBRXB-NH2 [NTX1]”: the “delivery of mRNA to immune cells” value in data set [6] (blood, 2 hours post-injection) is “Delivery of mRNA to a wide range of immune cells present in the blood is possible”. Besides, the “uptake of mRNA in immune cells” value in data set [6] (bone marrow, 2 hrs post-injection) was “mediated uptake of mRNA in immune cells present in the bone marrow”. Also, the “luciferase expression in tissues, mRNA delivery” value in data set [7] was “improves efficiency of mRNA delivery to lung, spleen, and lymph nodes”. Besides, the “luciferase expression in tissues, mRNA delivery” value in data set [7] (listed as NXT1) was “more effective than G1,2,3-RL and G1,2-RL,3-LR”. Moreover, in [2] (N:P 0.16:1), the “Polydispersity Index (PDI)” value is reported as 0.13, the “Zeta Potential” value is on record as 37 mV and the Hydrodynamic size amounted to 128 nm. Besides, the “mRNA transfection efficiency (eGFP), in words” value in data set [8] is reported as “more effectively than G1,2-RL, 3-RL”.
In the case of “(LR)8(KRL)4(KRL)2KGSCGAASSLNIA(Acp)-NH2 [NTX2]”, in [9], the “luciferase expression after DNA transfection” value is listed as “further increase transfection efficiency”.
Turning to `CC(=O)c1c(O)c(C)c(O)c(Cc2c(O)c3c(c(C(=O)/C=C/c4ccccc4)c2O)OC(C)(C)C=C3)c1O` [Rottlerin], the inhibition of transfection entry in [3] is “around 50%”.
KLKLKGSC-NH2 [G1-KL, (KL)2KGSC-NH2] returned a cell death in [4] of 40%.
As for Lipopolysaccharides, the TNF-alpha level entry in data set [5] (in vivo) is reported as “up to 5000 μg/mL”.
